IC50 data for eleven compounds are collected here from patent publication US9029531B2 (Agios Pharmaceuticals, Inc., priority 2012, dated 2015).

SMILES strings stand for the structures. Some results are limits rather than exact numbers.

By IC50 is commonly meant the concentration that inhibits the measured activity by half. Low values mean greater potency, high ones weaker potency.

The target of this assay is T1, glutaminase (GAC) (Homo sapiens, UniProt O94925).
T1 sequence (O94925 55-598 isoform O94925-3 limits assumed): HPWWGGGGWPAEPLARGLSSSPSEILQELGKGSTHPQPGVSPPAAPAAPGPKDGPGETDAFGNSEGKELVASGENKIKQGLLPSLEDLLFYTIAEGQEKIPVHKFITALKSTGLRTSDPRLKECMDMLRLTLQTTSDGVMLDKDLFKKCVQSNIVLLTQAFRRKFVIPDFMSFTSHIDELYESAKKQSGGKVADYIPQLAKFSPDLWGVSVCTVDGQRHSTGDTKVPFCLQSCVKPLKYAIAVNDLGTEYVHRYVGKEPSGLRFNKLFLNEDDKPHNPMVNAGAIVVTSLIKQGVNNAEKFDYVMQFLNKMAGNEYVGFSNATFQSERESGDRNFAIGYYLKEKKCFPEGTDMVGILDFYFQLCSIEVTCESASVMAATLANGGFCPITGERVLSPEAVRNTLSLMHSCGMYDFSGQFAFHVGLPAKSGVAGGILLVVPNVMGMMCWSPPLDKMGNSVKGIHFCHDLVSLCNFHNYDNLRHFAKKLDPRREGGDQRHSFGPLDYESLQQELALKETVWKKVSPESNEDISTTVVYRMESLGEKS
In words: Glutaminase coupled endpoint enzymatic assay (Example A). Particulars: inhibition of glutaminase; assay of Example A or Example B. Type of assay: biochemical. In a few lines:
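Endpoint coupled assay: glutamate formed by GAC drives GDH NADH production, recycled by diaphorase reducing resazurin to fluorescent resorufin (Ex544/Em590) after SDS stop. Buffer pH 8.5 with phosphate; glutamine at Km; enzyme preincubated with compound 60 min at room temperature.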
Consider `Nc1cccc(CC(=O)Nc2nnc([C@H]3CCC[C@H](c4nnc(NC(=O)Cc5cccc(N)n5)s4)C3)s2)n1` [Compound 232, N,N′-(5,5′-((1S,3S)-cyclohexane-1,3-diyl)bis(1,3,4-thiadiazole-5,2-diyl))bis(2-(6-aminopyridin-2-yl)acetamide)], for which the IC50 was < 100 nM.
As to `Nc1ccc(CC(=O)Nc2nnc([C@H]3CCC[C@H](c4nnc(NC(=O)Cc5ccc(N)cn5)s4)C3)s2)nc1` [Compound 233, N,N′-(5,5′-((1S,3S)-cyclohexane-1,3-diyl)bis(1,3,4-thiadiazole-5,2-diyl))bis(2-(5-aminopyridin-2-yl)acetamide)], the IC50 is < 100 nM.
`CN(C)C(=O)c1ccc(CC(=O)Nc2nnc([C@H]3CCC[C@H](c4nnc(NC(=O)Cc5ccc(C(=O)N(C)C)cn5)s4)C3)s2)nc1` [Compound 234, 6-[[5-[3-[5-[[2-[5-(dimethylcarbamoyl)pyridin-2-yl]acetyl]amino]-1,3,4-thiadiazol-2-yl]cyclohexyl]-1,3,4-thiadiazol-2-yl]carbamoylmethyl]-N,N-dimethyl-pyridine-3-carboxamide] had an IC50 of 100 to 500 nM.
`CCN(CC)c1cccc(CC(=O)Nc2nnc([C@H]3CCC[C@H](c4nnc(NC(=O)Cc5cccc(N(CC)CC)c5)s4)C3)s2)c1` [Compound 235, N,N′-(5,5′-((1S,3S)-cyclohexane-1,3-diyl)bis(1,3,4-thiadiazole-5,2-diyl))bis(2-(3-(diethylamino)phenyl)acetamide)] showed an IC50 of 500 to 1000 nM.
Regarding `CCNc1cccc(CC(=O)Nc2nnc([C@H]3CCC[C@H](c4nnc(NC(=O)Cc5cccc(NCC)c5)s4)C3)s2)c1` [Compound 236, N,N′-(5,5′-((1S,3S)-cyclohexane-1,3-diyl)bis(1,3,4-thiadiazole-5,2-diyl))bis(2-(3-(ethylamino)phenyl)acetamide)], the IC50 was < 100 nM.
Consider `CCN(CC)c1ccc(CC(=O)Nc2nnc([C@H]3CCC[C@H](c4nnc(NC(=O)Cc5ccc(N(CC)CC)cc5)s4)C3)s2)cc1` [Compound 237, N,N′-(5,5′-((1S,3S)-cyclohexane-1,3-diyl)bis(1,3,4-thiadiazole-5,2-diyl))bis(2-(4-(diethylamino)phenyl)acetamide)], for which the IC50 fell in the range of 500 to 1000 nM.
Regarding `CS(=O)(=O)Nc1ccc(CC(=O)Nc2nnc([C@H]3CCC[C@H](c4nnc(NC(=O)Cc5ccc(NS(C)(=O)=O)cc5)s4)C3)s2)cc1` [Compound 238, N,N′-(5,5′-((1S,3S)-cyclohexane-1,3-diyl)bis(1,3,4-thiadiazole-5,2-diyl))bis(2-(4-(methylsulfonamido)phenyl)acetamide)], the IC50 is < 100 nM.
On to `Nc1ccc(CC(=O)Nc2nnc([C@H]3CCC[C@H](c4nnc(NC(=O)Cc5ccc(N)cc5)s4)C3)s2)cc1` [Compound 239, N,N′-(5,5′-((1S,3S)-cyclohexane-1,3-diyl)bis(1,3,4-thiadiazole-5,2-diyl))bis(2-(4-aminophenyl)acetamide)], for which the IC50 is < 100 nM.
The figure for `O=C(Cc1ccc(F)cn1)Nc1nnc([C@H]2CCC[C@H](c3nnc(NC(=O)Cc4ccc(F)cn4)s3)C2)s1` [Compound 240, N,N′-(5,5′-((1S,3S)-cyclohexane-1,3-diyl)bis(1,3,4-thiadiazole-5,2-diyl))bis(2-(5-fluoropyridin-2-yl)acetamide)] is < 100 nM; for `CN(C)c1ccc(CC(=O)Nc2nnc([C@H]3CCC[C@H](c4nnc(NC(=O)Cc5ccc(N(C)C)cn5)s4)C3)s2)nc1` [Compound 241, N,N′-(5,5′-((1S,3S)-cyclohexane-1,3-diyl)bis(1,3,4-thiadiazole-5,2-diyl))bis(2-(5-(dimethylamino)pyridin-2-yl)acetamide)] it is < 100 nM; for `NC(=O)c1ccc(CC(=O)Nc2nnc([C@H]3CCC[C@H](c4nnc(NC(=O)Cc5ccc(C(N)=O)cn5)s4)C3)s2)nc1` [Compound 242] it is < 100 nM.
